Measured values reported in US4368203A, “Antibiotics and derivatives thereof having β-lactamase inhibitory activity and production thereof” (priority 1977, dated 1983).
In brackets after ≈: the same amount, converted by molar mass. Like-named read-outs stand apart in the source and are kept apart here. Each block holds one molecule with its values, some of them ahead of it.

What was measured:
[1] = tested on: Alcaligenes faecalis B-326; assay: MIC, broth dilution method; type: cell-based; conditions: for MIC: Alcaligenes faecalis, read-out: Minimum inhibitory concentration
Procedure: (§1) Sodium salt of the antibiotic PS-7 was dissolved and diluted with the BRAIN HEART INFUSION BROTH "Eiken" at a concentration between 5 μg/ml and 100 μg/ml. The solution was further diluted with the same medium to obtain a series of geometric concentrations. To the serial dilutions were added the seed cultures prepared by shaking culture of various test microorganisms shown in Tab. 5 in the BRAIN HEART INFUSION GROTH at 28° C. for 18 hours, the final cell count being about 1×10^5 /ml. […] The lowest concentration at which no cell growth was observed was the minimum inhibitory concentration of the antibiotic PS-7 on the test microorganism. […] . The minimum inhibitory concentrations on test strains were determined in the same manner as mentioned above. […] For the comparison, the results on the known antibiotics Cephazolin and Cefoxitin are also given in the same table.

Citrobacter freundii E-9 [2] = assay: MIC, broth dilution method; type: cell-based; conditions: for MIC: Citrobacter freundii, read-out: Minimum inhibitory concentration
Procedure: as §1

[3] = tested on: Diplococcus pneumoniae Type III; assay: MIC, broth dilution method; type: cell-based; conditions: Streptococcus pneumoniae, read-out: Minimum inhibitory concentration
Procedure: as §1

[4] = tested on: Staphylococcus aureus FDA 209P; assay: MIC, broth dilution method; type: cell-based; conditions: FDA209P, read-out: Minimum inhibitory concentration
Procedure: as §1

[5] = tested on: Enterobacter cloacae E-16; assay: MIC, broth dilution method; type: cell-based; conditions: for MIC: Enterobacter cloacae, read-out: Minimum inhibitory concentration
Procedure: Sodium salt of the antibiotic PS-7 was dissolved and diluted with the BRAIN HEART INFUSION BROTH "Eiken" at a concentration between 5 μg/ml and 100 μg/ml. The solution was further diluted with the same medium to obtain a series of geometric concentrations. To the serial dilutions were added the seed cultures prepared by shaking culture of various test microorganisms shown in Tab. 5 in the BRAIN HEART INFUSION GROTH at 28° C. for 18 hours, the final cell count being about 1×10^5 /ml. […] The lowest concentration at which no cell growth was observed was the minimum inhibitory concentration of the antibiotic PS-7 on the test microorganism. […] The minimum inhibitory concentrations on test strains were determined in the same manner as mentioned above.

[6] = tested on: Staphylococcus aureus FDA 209P; assay: MIC, broth dilution method; type: cell-based; conditions: for MIC: Staphylococcus aureus, FDA209P, Table 7, no unit in the head, read-out: Minimum inhibitory concentration
[7] = tested on: Staphylococcus aureus Bx-1633; assay: MIC, broth dilution method; conditions: BX1633, 20 h, read-out: Minimum inhibitory concentration
[8] = tested on: Staphylococcus aureus Rassell; assay: MIC, broth dilution method; conditions: 20 h, read-out: Minimum inhibitory concentration
[9] = tested on: Streptococcus pyogenes NY-5; assay: MIC, broth dilution method; conditions: for MIC: Streptococcus pyogenes, NY5, 20 h, read-out: Minimum inhibitory concentration
[10] = tested on: Bacillus subtilis ATCC 6633; assay: MIC, broth dilution method; conditions: ATCC6633, 20 h, read-out: Minimum inhibitory concentration
Serratia marcescens S-18 [11] = assay: MIC, broth dilution method; conditions: S18, 20 h, read-out: Minimum inhibitory concentration
[12] = tested on: Klebsiella pneumoniae K-2; assay: MIC, broth dilution method; conditions: for MIC: Klebsiella pneumoniae, K2, 20 h, read-out: Minimum inhibitory concentration
Enterobacter sp. E-8 = assay: MIC, broth dilution method; conditions: SP.E8, 20 h, read-out: Minimum inhibitory concentration
[13] = tested on: Enterobacter aerogenes E-19; assay: MIC, broth dilution method; conditions: Klebsiella aerogenes, E19, 20 h, read-out: Minimum inhibitory concentration
Proteus vulgaris P-5 [14] = assay: MIC, broth dilution method; conditions: for MIC: Proteus vulgaris, P5, 20 h, read-out: Minimum inhibitory concentration
Proteus rettgeri P-7 = assay: MIC, broth dilution method; conditions: Providencia rettgeri, P7, 20 h, read-out: Minimum inhibitory concentration
Proteus mirabilis P-6 = assay: MIC, broth dilution method; conditions: P6, 20 h, read-out: Minimum inhibitory concentration
Proteus sp. P-22 = assay: MIC, broth dilution method; conditions: 20 h, read-out: Minimum inhibitory concentration
Providencia sp. P-8 = assay: MIC, broth dilution method; conditions: SP.P8, 20 h, read-out: Minimum inhibitory concentration
Proteus vulgaris P-5 [15] = assay: Potentiating and synergistic effect, pulp disc inhibition zone on agar plate; type: cell-based
Procedure: (§2) 10 ml of 2.5 folds diluted nutrient agar (pH 7.0) containing 50 μg/ml of penicillin G or cephaloridine was seeded with the β-lactamase producing and β-lactam-resistant microorganisms and poured in a 9 cm Petri dish to provide the bio-assay agar plate. […] A control assay plate was similarly prepared without penicillin G or cephaloridine. As reference antibiotics, 10,000 μg/ml of penicillin G or 20 μl of cephaloridine were disc-assayed under the same conditions.
(§3) Cepholoridine was added to a 2.5-times diluted nutrient agar, pH 7.0 and the medium was inoculated with a β-lactam-producing strain that produceds β-lactamase. Ten ml of the medium was spread and solidified in a petri dish of 9 cm in diameter to prepare an assay plate. […] Each 20 μl of the solution and its 2- and 4-times diluted solutions was soaked in a pulp disc of 8 mm in diameter. To the surface of the above nutrient agar was placed the pulp disc and the size of the growth inhibitory zone around the disc was examined after incubation at 35° C. for 18 hours. […] In addition, for the comparison, a similar experiment was also performed with a pulp disk soaked with 20 μl of 10,000 μg/ml Penicillin G or Cepholoridine solution in place of the antibiotic PS-7.

Citrobacter freundii E-9 [16] = assay: as above; type: cell-based
Procedure: (§4) 10 ml of 2.5 folds diluted nutrient agar (pH 7.0) containing 50 μg/ml of penicillin G or cephaloridine was seeded with the β-lactamase producing and β-lactam-resistant microorganisms and poured in a 9 cm Petri dish to provide the bio-assay agar plate. On this assay plate, 8 mm of pulp discs each containing 20 μl of antibiotic PS-6 solution at the concentration of 240 μg/ml were placed and incubated at 35° C. for 18 hours before reading the inhibition zones. A control assay plate was similarly prepared without penicillin G or cephaloridine. As reference antibiotics, 10,000 μg/ml of penicillin G or 20 μl of cephaloridine were disc-assayed under the same conditions.

Serratia marcescens S-18 [17] = assay: as above; type: cell-based
Procedure: as §4

[18] = tested on: β-lactamase-producing, β-lactam-resistant bacteria; assay: Increase of the antibiotic activity of other antibiotics (summary in words); type: cell-based; conditions: β-lactamase-producing bacteria such as Proteus vulgaris, Serratia marcescens
Procedure: as §2, §3

[19] = tested on: Diplococcus pneumoniae Type III; assay: MIC, broth dilution method; type: cell-based
[20] = B326, Table 7, no unit in the head
[21] = E9, Table 7, no unit in the head, lactamase-producing strain
[22] = E16, Table 7, no unit in the head, lactamase-producing strain
[23] = Table 9, lactamase producing organism
[24] = Table 6, agar containing 50 μg/ml of cephaloridine, disc 20 μl, PS-6 240 μg/ml, reference antibiotics 10,000 μg/ml
[25] = Table 6, agar containing 50 μg/ml of penicillin G, disc 20 μl, PS-6 240 μg/ml, reference antibiotics 10,000 μg/ml
[26] = Table 9, 10% of horse blood in the medium

Compound: Cc1nnc(SCC2=C(C(=O)O)N3C(=O)[C@@H](NC(=O)Cn4cnnn4)[C@H]3SC2)s1 [Cefazorin]
- MIC ([1]; B326, Table 5, 35° C. 20 hours): 6.25 µg/mL (≈ 13.8 µM)
- MIC [1, 20]: 6.25 µg/mL (≈ 13.8 µM)
- MIC (Citrobacter freundii E-9 [2]; E9, 20 h): > 100 µg/mL
- MIC (Citrobacter freundii E-9 [2]; [21]): > 100 µg/mL
- MIC ([3]; 20 h): 0.125 µg/mL (≈ 0.275 µM)
- MIC [3]: 0.125 µg/mL (≈ 0.275 µM)
- MIC ([4]; Table 5, 35° C. 20 hours): 0.25 µg/mL (≈ 0.55 µM)
- MIC [5, 22]: > 100 µg/mL
- MIC [6]: 0.25 µg/mL (≈ 0.55 µM)
- MIC [7]: 0.5 µg/mL (≈ 1.1 µM)
- MIC [8]: 1 µg/mL (≈ 2.2 µM)
- MIC [9]: 0.25 µg/mL (≈ 0.55 µM)
- MIC [10]: 0.5 µg/mL (≈ 1.1 µM)
- MIC (Serratia marcescens S-18 [11]): > 100 µg/mL
- MIC [12]: 6.25 µg/mL (≈ 13.8 µM)
- MIC (Enterobacter sp. E-8): 3.13 µg/mL (≈ 6.89 µM)
- MIC [13]: > 100 µg/mL
- MIC (Proteus vulgaris P-5 [14]): > 100 µg/mL
- MIC (Proteus rettgeri P-7): 25 µg/mL (≈ 55 µM)
- MIC (Proteus mirabilis P-6): 6.25 µg/mL (≈ 13.8 µM)
- MIC (Proteus sp. P-22): > 100 µg/mL
- MIC (Providencia sp. P-8): 50 µg/mL (≈ 110 µM)

Compound: O=C(Cc1cccs1)N[C@@H]1C(=O)N2C(C(=O)[O-])=C(C[n+]3ccccc3)CS[C@H]12 [cephaloridine]
- MIC ([1]; B326, 20 h): 3.13 µg/mL (≈ 7.53 µM)
- Minimum inhibitory concentration ([1]; Table 9): 3.13 µg/mL (≈ 7.53 µM)
- MIC (Citrobacter freundii E-9 [2]; E9, 20 h): > 100 µg/mL
- Minimum inhibitory concentration (Citrobacter freundii E-9 [2]; [23]): > 100 µg/mL
- MIC ([3]; 20 h): 0.01 µg/mL (≈ 0.0241 µM)
- MIC ([4]; 20 h): 0.04 µg/mL (≈ 0.0963 µM)
- MIC ([5]; E16, 20 h): > 100 µg/mL
- Minimum inhibitory concentration [5, 23]: > 100 µg/mL
- zone of inhibition at 10000 µg/mL (Proteus vulgaris P-5 [15]; Proteus vulgaris, P5, 18 h, read-out: Diameter of inhibitory zone, No addition): 12 mm
- zone of inhibition at 240 µg/mL (Proteus vulgaris P-5 [15]; Proteus vulgaris, P5, 18 h, read-out: Inhibition zone, Control): 12 mm
- Inhibition zone, with cephaloridine (Proteus vulgaris P-5 [15]; [24]): 12.0 mm
- Inhibition zone, with penicillin G (Proteus vulgaris P-5 [15]; [25]): 12.0 mm
- Diameter of inhibitory zone, Cephaloridine-added (Proteus vulgaris P-5 [15]; Table 8, comparison disc 20 μl of 10,000 μg/ml, cephaloridine in the agar): 12.0 mm
- zone of inhibition at 240 µg/mL (Citrobacter freundii E-9 [16]; Citrobacter freundii, E9, 18 h, read-out: Inhibition zone, Control): 12 mm
- Inhibition zone, with cephaloridine (Citrobacter freundii E-9 [16]; [24]): 12.0 mm
- Inhibition zone, with penicillin G (Citrobacter freundii E-9 [16]; [25]): 12.0 mm
- zone of inhibition at 240 µg/mL (Serratia marcescens S-18 [17]; Serratia marcescens, S18, 18 h, read-out: Inhibition zone, Control): 11 mm
- Inhibition zone, with cephaloridine (Serratia marcescens S-18 [17]; [24]): 11.0 mm
- Inhibition zone, with penicillin G (Serratia marcescens S-18 [17]; [25]): 11.0 mm
- Synergistic enhancement of the activity of penicillin G or cephaloridine (β-lactam antibiotics) [18]: no synergistic effect
- Synergistic enhancement of the activity of penicillin G or cephaloridine (β-lactam antibiotics) ([18]; listed as Cephaloridine): No enhancement of antimicrobial activity
- Minimum inhibitory concentration ([6]; Table 9, ester dissolved in methanol, final methanol not above 10%): 0.04 µg/mL (≈ 0.0963 µM)
- Minimum inhibitory concentration [19, 26]: 0.01 µg/mL (≈ 0.0241 µM)
- MIC [9]: 0.01 µg/mL (≈ 0.0241 µM)
- Minimum inhibitory concentration [9, 26]: 0.01 µg/mL (≈ 0.0241 µM)
- MIC [12]: 20 µg/mL (≈ 48.1 µM)
- Minimum inhibitory concentration [12, 23]: 20.0 µg/mL (≈ 48.1 µM)
- MIC (Proteus vulgaris P-5 [14]): > 100 µg/mL
- Minimum inhibitory concentration (Proteus vulgaris P-5 [14]; [23]): > 100 µg/mL

- MIC ([1]; B326, Table 5, 35° C. 20 hours): 1.56 µg/mL (≈ 3.65 µM)
- MIC [1, 20]: 1.56 µg/mL (≈ 3.65 µM)
- MIC (Citrobacter freundii E-9 [2]; E9, 20 h, Table 5, betalactamase producer): > 100 µg/mL
- MIC (Citrobacter freundii E-9 [2]; [21]): > 100 µg/mL
- MIC ([3]; 20 h, Table 5, 10% horse blood supplemented into the medium): 2.5 µg/mL (≈ 5.85 µM)
- MIC ([4]; Table 5, 35° C. 20 hours): 2.5 µg/mL (≈ 5.85 µM)
- MIC ([5]; E16, 20 h, Table 5, betalactamase producer): > 100 µg/mL
- MIC [5, 22]: > 100 µg/mL
- MIC [6]: 2.5 µg/mL (≈ 5.85 µM)
- MIC ([19]; Streptococcus pneumoniae, Table 7, no unit in the head, horse serum in the medium at 10%, read-out: Minimum inhibitory concentration): 2.5 µg/mL (≈ 5.85 µM)
- MIC [7]: 2.5 µg/mL (≈ 5.85 µM)
- MIC [8]: 5 µg/mL (≈ 11.7 µM)
- MIC [9]: 1.25 µg/mL (≈ 2.92 µM)
- MIC [10]: 1.25 µg/mL (≈ 2.92 µM)
- MIC (Serratia marcescens S-18 [11]): 50 µg/mL (≈ 117 µM)
- MIC [12]: 6.25 µg/mL (≈ 14.6 µM)
- MIC (Enterobacter sp. E-8): 12.5 µg/mL (≈ 29.2 µM)
- MIC [13]: > 100 µg/mL
Compound: CO[C@@]1(NC(=O)Cc2cccs2)C(=O)N2C(C(=O)O)=C(COC(N)=O)CS[C@@H]21 [Cefoxitin]
